US20230416256A1, “SMALL MOLECULE INHIBITORS OF NF-kB INDUCING KINASE” (Janssen Pharmaceutica NV, priority 2020, published 2023)
pIC50: −log10 of the molar value. Read-outs that look alike come from different tables or passages of the source.

What was measured:
[1] = test system: p-IKKα levels in L363 (NIK translocated multiple myeloma) cells; assay: Effect of compounds on p-IKKα levels in L363 cells (AlphaLISA SureFire Ultra); assay type: cell-based, human; conditions: Homo sapiens, 10 μM MG132, 6 h, average of values obtained, read-out: Assay 2 IC50
Experimental: Effect of Compounds on p-IKKα Levels in L363 (NIK Translocated Multiple Myeloma) Cells
All compounds tested were dissolved and serially diluted in DMSO, 1:3 dilution for 11 points in an Echo compatible plate. 100% DMSO was added to columns 12 and 24 of the plate to serve as high and low signal controls. This compound plate was used to spot 20 nL of compound or DMSO into a Greiner 384 well TC plate (781080). The final DMSO concentration was 0.3% (v/v) in cell assays. Human L363 cells (ATCC) were cultured in RPMI1640 medium supplemented with GlutaMax, non-essential amino acids, sodium pyruvate and 10% fetal bovine serum. Cells were routinely maintained at densities of […]-2×10^6 cells per mL at 37° C. in a humidified 5% CO2 atmosphere incubator. Cells were passaged twice a week splitting back to obtain the low density. The day before the assay, cells were washed twice in HBSS (Hank's Balanced Salt Solution), resuspended in Dulbecco's Modified Eagle Medium (DMEM)+0.5% IgG and protease free BSA (Jackson Immuno Research Laboratories), +/−250 ng/ml recombinant human B-cell activating factor (BAFF/BLyS/TNFSF13B) and incubated overnight at 37° C. in a humidified 5% CO2 atmosphere (bulk stimulation with or without BAFF). The next day, the cell concentration was adjusted to 1×10^7 cells/ml in DMEM+/−250 ng/ml BAFF+/10 μM MG132 and plated at […] into compound or DMSO spotted 384 well TC plates. Seeded cells were incubated at 37° C. in a humidified 5% CO2 atmosphere for 6 h. After 6 h, the plates were removed from the incubator and cell lysis was achieved by the addition of 2.5 μl 5×lysis buffer containing protease and phosphatase inhibitors, followed by shaking on a plate shaker at room temperature for 15 min. At the end of this incubation, lysed cells were sequentially treated and incubated with acceptor and donor bead mixes according to the manufacturer's protocol for a 1 plate/2-incubation suspension cell assay (AlphaLISA SureFire Ultra p-IKKa (Ser 176/180) Assay Kit (Perkin Elmer). Plates were read using an EnVision Multilabel Plate Reader (Perkin Elmer). Within an experiment, a concentration response curve for each compound was run in duplicate. The signal obtained in the test wells was normalized using high signal (BAFF stimulated cells, DMSO, MG132) and low signal (unstimulated cells, DMSO) controls. To determine the IC50, a sigmoidal curve was fitted to the plot of % inhibition versus Log10 compound concentration.

[2] = molecular target: recombinant human NF-kappaB-inducing kinase (NIK/MAP3K14) (Homo sapiens, UniProt Q99558); assay: Inhibition of auto-phosphorylation of recombinant human NIK/MAP3K14 activity (AlphaScreen); assay type: biochemical; conditions: GST-tagged NIK/MAP3K14 1 nM, 5 μM ATP, 2 h at 25° C.; average of values obtained
Sequence of recombinant human NF-kappaB-inducing kinase (NIK/MAP3K14) (Q99558 whole entry): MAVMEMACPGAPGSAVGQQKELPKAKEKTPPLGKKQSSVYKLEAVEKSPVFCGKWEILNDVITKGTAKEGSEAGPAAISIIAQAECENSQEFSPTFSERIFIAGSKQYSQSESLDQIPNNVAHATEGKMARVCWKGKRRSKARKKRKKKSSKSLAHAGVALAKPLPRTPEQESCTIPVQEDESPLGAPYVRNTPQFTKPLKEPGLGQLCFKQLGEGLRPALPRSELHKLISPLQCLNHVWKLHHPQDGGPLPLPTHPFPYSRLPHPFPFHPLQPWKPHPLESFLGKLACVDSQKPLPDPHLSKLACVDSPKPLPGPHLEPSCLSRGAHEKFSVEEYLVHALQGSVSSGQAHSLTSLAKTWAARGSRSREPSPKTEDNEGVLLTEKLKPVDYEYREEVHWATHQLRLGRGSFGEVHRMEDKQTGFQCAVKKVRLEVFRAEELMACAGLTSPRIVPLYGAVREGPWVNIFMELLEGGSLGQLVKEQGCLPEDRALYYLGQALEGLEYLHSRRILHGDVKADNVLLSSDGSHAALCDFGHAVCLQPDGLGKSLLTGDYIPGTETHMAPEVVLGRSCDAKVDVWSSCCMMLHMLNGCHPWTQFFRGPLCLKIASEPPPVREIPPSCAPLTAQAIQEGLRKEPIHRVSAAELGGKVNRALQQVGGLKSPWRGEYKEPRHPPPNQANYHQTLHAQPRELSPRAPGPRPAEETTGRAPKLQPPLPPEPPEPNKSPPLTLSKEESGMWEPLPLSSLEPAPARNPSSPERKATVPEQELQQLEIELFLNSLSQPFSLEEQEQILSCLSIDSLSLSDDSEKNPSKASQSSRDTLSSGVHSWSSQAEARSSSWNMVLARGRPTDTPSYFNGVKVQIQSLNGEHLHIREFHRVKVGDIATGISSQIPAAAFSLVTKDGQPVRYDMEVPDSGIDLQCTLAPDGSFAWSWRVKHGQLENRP
Experimental: Inhibition of Auto-Phosphorylation of Recombinant Human NF-kappaB-Inducing Kinase (NIK/MAP3K14) Activity (AlphaScreen®)
NIK/MAP3K14 auto-phosphorylation activity was measured using the AlphaScreen® (αscreen) format (Perkin Elmer). All compounds tested were dissolved in dimethyl sulfoxide (DMSO) and further dilutions were made in assay buffer. The final DMSO concentration was 0.7% (v/v) in assays. The assay buffer was 50 mM Tris pH 7.5 containing 1 mM EGTA (ethylene glycol tetraacetic acid), 1 mM DTT (dithiothreitol), 0.1 mM Na3VO4, 5 mM MgCl2, and 0.01% Tween® 20. The assays were carried out in 384 well Proxiplates (Perkin Elmer). The incubations consisted of the compound, 5 μM Adenosine-5′-triphosphate (ATP), and 1 nM NIK/MAP3K14. Incubations were initiated by the addition of GST-tagged NIK/MAP3K14 enzyme, carried out for 2 h at 25° C. and terminated by addition of stop buffer containing anti-phospho-IKK Ser176/180 antibody. Protein A Acceptor and Glutathione-Donor beads were added before reading using an EnVision Multilabel Plate Reader (Perkin Elmer). The signal obtained in the wells was normalized using high (full enzyme activity, 0.7% DMSO) and low controls (no enzyme activity, 0.7% DMSO, no ATP). IC50's were determined by fitting a sigmoidal curve to % inhibition of control versus Log10 compound concentration.

[3] = L-363, 6 h, 250 ng/ml BAFF stimulated
[4] = L-363, 250 ng/ml BAFF stimulated

pIC50 [1, 3] | SMILES | pIC50 [2] | pIC50 [1, 4]
6.30 to 7.00 | O[C@@]1(c2cccc(-c3csc(-c4c[nH]c5ncc(C(F)(F)F)cc45)n3)c2)CCn2ccnc21 [Example 25, (R)-7-(3-(2-(5-(Trifluoromethyl)-1H-pyrrolo[2,3-b]pyridin-3-yl)thiazol-4-yl)phenyl)-6,7-dihydro-5H-pyrrolo[1,2-a]imidazol-7-ol] | ≥ 7.00 | –
≥ 7.00 | N#Cc1cnc2[nH]cc(-c3nc(-c4cccc([C@]5(O)CCn6ccnc65)c4)cs3)c2c1 [Example 26, (R)-3-(4-(3-(7-Hydroxy-6,7-dihydro-5H-pyrrolo[1,2-a]imidazol-7-yl)phenyl)thiazol-2-yl)-1H-pyrrolo[2,3-b]pyridine-5-carbonitrile] | ≥ 7.00 | –
≥ 7.00 | O[C@@]1(c2cccc(-c3csc(-c4c[nH]c5ncc(Cl)cc45)n3)c2)CCn2ccnc21 [Example 27, (R)-7-(3-(2-(5-Chloro-1H-pyrrolo[2,3-b]pyridin-3-yl)thiazol-4-yl)phenyl)-6,7-dihydro-5H-pyrrolo[1,2-a]imidazol-7-ol] | ≥ 7.00 | –
6.30 to 7.00 | CS(=O)(=O)c1cnc2[nH]cc(-c3nc(-c4cccc([C@]5(O)CCn6ccnc65)c4)cs3)c2c1 [Example 28, (R)-7-(3-(2-(5-(Methylsulfonyl)-1H-pyrrolo[2,3-b]pyridin-3-yl)thiazol-4-yl)phenyl)-6,7-dihydro-5H-pyrrolo[1,2-a]imidazol-7-ol] | ≥ 7.00 | –
≥ 7.00 | O[C@@]1(c2cccc(-c3csc(-c4c[nH]c5nccc(F)c45)n3)c2)CCn2ccnc21 [Example 29, (R)-7-(3-(2-(4-Fluoro-1H-pyrrolo[2,3-b]pyridin-3-yl)thiazol-4-yl)phenyl)-6,7-dihydro-5H-pyrrolo[1,2-a]imidazol-7-ol] | ≥ 7.00 | –
< 6.30 | O[C@@]1(c2cccc(-c3coc(-c4c[nH]c5ncccc45)c3)c2)CCn2ccnc21 [Example 30, (R)-7-(3-(5-(1H-Pyrrolo[2,3-b]pyridin-3-yl)furan-3-yl)phenyl)-6,7-dihydro-5H-pyrrolo[1,2-a]imidazol-7-ol] | ≥ 7.00 | –
≥ 7.00 | O[C@@]1(c2cccc(-c3csc(-c4c[nH]c5nccnc45)n3)c2)CCn2ccnc21 [Example 41, (R)-7-(3-(2-(5H-Pyrrolo[2,3-b]pyrazin-7-yl)thiazol-4-yl)phenyl)-6,7-dihydro-5H-pyrrolo[1,2-a]imidazol-7-ol] | ≥ 7.00 | –
< 6.30 | O[C@]1(c2cccc(-c3csc(-c4c[nH]c5nccnc45)n3)c2)CCn2ccnc21 [Example 42, (S)-7-(3-(2-(5H-Pyrrolo[2,3-b]pyrazin-7-yl)thiazol-4-yl)phenyl)-6,7-dihydro-5H-pyrrolo[1,2-a]imidazol-7-ol] | 6.30 to 7.00 | –
– | O=C1N(CC(F)(F)F)CC[C@]1(O)c1cccc(-c2csc(-c3c[nH]c4nccnc34)n2)c1 [Example 43, (S)-3-(3-(2-(5H-Pyrrolo[2,3-b]pyrazin-7-yl)thiazol-4-yl)phenyl)-3-hydroxy-1-(2,2,2-trifluoroethyl)pyrrolidin-2-one] | < 6.30 | < 6.30
– | O=C1N(CC(F)(F)F)CC[C@@]1(O)c1cccc(-c2csc(-c3c[nH]c4nccnc34)n2)c1 [Example 44, (R)-3-(3-(2-(5H-Pyrrolo[2,3-b]pyrazin-7-yl)thiazol-4-yl)phenyl)-3-hydroxy-1-(2,2,2-trifluoroethyl)pyrrolidin-2-one] | < 6.30 | < 6.30
– | CN1C[C@@](O)(c2cccc(-c3csc(-c4c[nH]c5nccnc45)n3)c2)C1=O [Example 45, (S)-3-(3-(2-(5H-Pyrrolo[2,3-b]pyrazin-7-yl)thiazol-4-yl)phenyl)-3-hydroxy-1-methylazetidin-2-one] | < 6.30 | < 6.30
– | CN1C[C@](O)(c2cccc(-c3csc(-c4c[nH]c5nccnc45)n3)c2)C1=O [Example 46, (R)-3-(3-(2-(5H-Pyrrolo[2,3-b]pyrazin-7-yl)thiazol-4-yl)phenyl)-3-hydroxy-1-methylazetidin-2-one] | < 6.30 | < 6.30
– | COc1cnc2[nH]cc(-c3nc(-c4cccc([C@]5(O)CCN(C)C5=O)c4)cs3)c2c1 [Example 49, (R)-3-Hydroxy-3-(3-(2-(5-methoxy-1H-pyrrolo[2,3-b]pyridin-3-yl)thiazol-4-yl)phenyl)-1-methylpyrrolidin-2-one] | ≥ 7.00 | 6.30 to 7.00
– | CN1CC[C@@](O)(c2cccc(-c3nc(-c4c[nH]c5ncccc45)sc3CO)c2)C1=O [Example 50, (R)-3-Hydroxy-3-(3-(5-(hydroxymethyl)-2-(1H-pyrrolo[2,3-b]pyridin-3-yl)thiazol-4-yl)phenyl)-1-methylpyrrolidin-2-one] | ≥ 7.00 | < 6.30
– | CN1CC[C@@](O)(c2cccc(-c3csc(-c4c[nH]c5ncc(C(=O)O)cc45)n3)c2)C1=O [Example 51, (R)-3-(4-(3-(3-Hydroxy-1-methyl-2-oxopyrrolidin-3-yl)phenyl)thiazol-2-yl)-1H-pyrrolo[2,3-b]pyridine-5-carboxylic acid] | ≥ 7.00 | < 6.30
– | CN1CC[C@@](O)(c2cccc(-c3csc(-c4c[nH]c5ncncc45)n3)c2)C1=O [Example 53, (R)-3-(3-(2-(7H-Pyrrolo[2,3-d]pyrimidin-5-yl)thiazol-4-yl)phenyl)-3-hydroxy-1-methylpyrrolidin-2-one] | ≥ 7.00 | < 6.30
– | CN1CCC[C@@](O)(c2cccc(-c3csc(-c4c[nH]c5nccnc45)n3)c2)C1=O [Example 54, (R)-3-(3-(2-(5H-Pyrrolo[2,3-b]pyrazin-7-yl)thiazol-4-yl)phenyl)-3-hydroxy-1-methylpiperidin-2-one] | ≥ 7.00 | 6.30 to 7.00
– | CN1CCC[C@](O)(c2cccc(-c3csc(-c4c[nH]c5nccnc45)n3)c2)C1=O [Example 55, (S)-3-(3-(2-(5H-Pyrrolo[2,3-b]pyrazin-7-yl)thiazol-4-yl)phenyl)-3-hydroxy-1-methylpiperidin-2-one] | < 6.30 | < 6.30
– | CN1CC[C@@](O)(c2cccc(-c3nc(-c4c(F)[nH]c5ncccc45)cs3)c2)C1=O [Example 56, (R)-3-(3-(4-(2-Fluoro-1H-pyrrolo[2,3-b]pyridin-3-yl)thiazol-2-yl)phenyl)-3-hydroxy-1-methylpyrrolidin-2-one] | 6.30 to 7.00 | < 6.30
– | CN1CC[C@@](O)(c2cccc(-c3csc(-c4c(F)[nH]c5ncccc45)n3)c2)C1=O [Example 57, (R)-3-(3-(2-(2-Fluoro-1H-pyrrolo[2,3-b]pyridin-3-yl)thiazol-4-yl)phenyl)-3-hydroxy-1-methylpyrrolidin-2-one] | 6.30 to 7.00 | < 6.30
< 6.30 | O[C@]1(c2cccc(-c3nc(-c4c[nH]c5ncccc45)cs3)c2)CCc2scnc21 [Example 58, (S)-4-(3-(4-(1H-Pyrrolo[2,3-b]pyridin-3-yl)thiazol-2-yl)phenyl)-5,6-dihydro-4H-cyclopenta[d]thiazol-4-ol] | 6.30 to 7.00 | –
≥ 7.00 | O[C@@]1(c2cccc(-c3nc(-c4c[nH]c5ncccc45)cs3)c2)CCc2scnc21 [Example 59, (R)-4-(3-(4-(1H-Pyrrolo[2,3-b]pyridin-3-yl)thiazol-2-yl)phenyl)-5,6-dihydro-4H-cyclopenta[d]thiazol-4-ol] | ≥ 7.00 | –
